From PubChem BioAssay (NCI)
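Exposure lasted 48 hours, with cells grown in 96-well plates and compounds tested at five concentrations. Abbreviation: GI50, concentration required for 50% inhibition of growth. TGI: concentration producing complete growth inhibition.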

Assays:
Assay in all cases: growth of human tumour cells (NCI), 48 h
T-47D breast = tested on: T-47D breast
SF-268 CNS = tested on: SF-268 CNS
TK-10 renal = tested on: TK-10 renal
OVCAR-8 ovarian = tested on: OVCAR-8 ovarian
NCI-H23 lung = tested on: NCI-H23 lung
HL-60(TB) leukemia = tested on: HL-60(TB) leukemia
COLO 205 colon = tested on: COLO 205 colon
DU-145 prostate = tested on: DU-145 prostate
XF 498 CNS = tested on: XF 498 CNS
DMS 114 small cell lung = tested on: DMS 114 small cell lung

| Compound | TGI (T-47D breast) | TGI (SF-268 CNS) | TGI (TK-10 renal) | TGI (OVCAR-8 ovarian) | TGI (NCI-H23 lung) | TGI (HL-60(TB) leukemia) | TGI (COLO 205 colon) | TGI (DU-145 prostate) | TGI (XF 498 CNS) [µM] | GI50 (T-47D breast) | GI50 (SF-268 CNS) | GI50 (TK-10 renal) | GI50 (OVCAR-8 ovarian) | GI50 (NCI-H23 lung) | GI50 (HL-60(TB) leukemia) | GI50 (COLO 205 colon) | GI50 (DU-145 prostate) | TGI (DMS 114 small cell lung) [µM] |
| --- | --- | --- | --- | --- | --- | --- | --- | --- | --- | --- | --- | --- | --- | --- | --- | --- | --- | --- |
| CSc1ccc(NC(=O)Nc2cc(C)ccn2)cc1 | > 100 µM | > 100 µM | > 100 µM | > 100 µM | > 100 µM | > 100 µM | > 100 µM | > 100 µM | – | – | – | – | – | – | – | – | – | – |
| COC(=O)C12C34C=CC5(CCC6(C=CC1(CC3)O6)C52C(=O)OC)O4 (centres undefined) | – | > 100 µM | > 100 µM | > 100 µM | > 100 µM | > 100 µM | > 100 µM | – | > 100 | – | – | – | – | – | – | – | – | – |
| CC1=CC(C)(C)Nc2ccc(Cc3ccc4c(c3)C(C)=CC(C)(C)N4)cc21 | 35.2 µM | > 100 µM | 92.8 µM | 56.8 µM | > 100 µM | 34.1 µM | 45.2 µM | 76.1 µM | – | 3.77 µM | 16.6 µM | 16.8 µM | 9.59 µM | 4.54 µM | 5.1 µM | 20.3 µM | 10.1 µM | – |
| COc1c(B(O)O)cccc1-c1nc2ccc3[nH]ncc3c2c2c1CCCC2 | > 37.7 µM | 12.5 µM | 16.4 µM | > 38.8 µM | 9.28 µM | 4.87 µM | 6.32 µM | 25.9 µM | – | 3.36 µM | 1.95 µM | 0.0448 µM | 2.39 µM | 2.48 µM | 0.658 µM | 2.2 µM | 2.23 µM | – |
| Cc1ccc(-c2c3c(nn2-c2ccc(S(=O)(=O)NC(=O)NC4CCCCC4)cc2)-c2ccccc2C3)cc1 | > 100 µM | 28.6 µM | 9.85 µM | 70.7 µM | 27.1 µM | 21.4 µM | 30.4 µM | 28.7 µM | – | 25.7 µM | 11.5 µM | 1.7 µM | 26.2 µM | 10.9 µM | 5.17 µM | 12.1 µM | 14.3 µM | – |
| CNCC(=O)NC(CO)C(=O)NC(CO)C(=O)NC1C(C(N)=O)OC(n2ccc(N)nc2=O)C(O)C1O (centres undefined) | > 50 µg/mL | 15.6 µg/mL | > 50 µg/mL | > 50 µg/mL | 48.8 µg/mL | > 50 µg/mL | > 50 µg/mL | > 50 µg/mL | – | > 50 µg/mL | 1.95 µg/mL | 11 µg/mL | 12.4 µg/mL | 8.49 µg/mL | > 50 µg/mL | > 50 µg/mL | 13 µg/mL | – |
| CN(C)c1cc2c(Nc3ccc4c(cnn4Cc4ccccc4)c3)ncnc2cn1 | > 20.5 µM | > 25 µM | > 23.2 µM | > 25 µM | > 25 µM | 23.8 µM | > 25 µM | > 25 µM | – | 3.38 µM | > 24.1 µM | 0.741 µM | 9.13 µM | 9.52 µM | 8.93 µM | 10.1 µM | 5.54 µM | – |
| C=C1C(=O)O[C@@H]2CC(CO)=C([C@@H](C)CCCO)[C@@H](OC(=O)/C(C)=C\C)[C@H]12 | 49.7 µM | 50.2 µM | 45.9 µM | > 76.8 µM | 38.8 µM | 4.86 µM | 28.7 µM | 27.7 µM | – | – | – | – | – | – | – | – | – | – |
| OC(CN1CCCC2CCCCC21)c1cc2ccccc2c2ccccc12 (centres undefined) | 5.71 µM | 13.7 µM | 7.66 µM | 15.3 µM | 7.14 µM | 3.76 µM | 2.9 µM | 14 µM | – | 2.16 µM | 3.64 µM | 2.3 µM | 3.2 µM | 2.14 µM | 2.02 µM | 1.45 µM | 3.73 µM | – |
| C=C1C(=O)O[C@H]2[C@H]1CC/C(COC(=O)CCCCCCCC(=O)OC/C1=C/CC[C@@]3(C)O[C@H]3[C@H]3OC(=O)C(=C)[C@@H]3CC1)=C\CC[C@@]1(C)O[C@@H]21 | 8.26 µM | 7.41 µM | 7.03 µM | 8.44 µM | 6.52 µM | 4.87 µM | 3.78 µM | 10.8 µM | – | 2.3 µM | 2.3 µM | 2.94 µM | 2.75 µM | 2.26 µM | 1.04 µM | 1.76 µM | 2.9 µM | – |
| Cc1c(Cl)cccc1NC(=O)c1sc2nc3c(cc2c1N)C(=O)CCC3 | > 100 µM | > 100 µM | > 100 µM | > 55.6 µM | > 100 µM | 0.769 µM | 0.344 µM | 47.3 µM | – | 0.055 µM | 0.206 µM | 37.6 µM | 0.272 µM | 0.137 µM | 0.081 µM | 0.05 µM | 0.124 µM | – |
| CCCCCCCCC(C)CCCCCCCCC(=O)OCC(COP(=O)([O-])OCC[N+](C)(C)C)OC(=O)CCCCCCCCC(C)CCCCCCCC (centres undefined) | – | > 100 µM | > 100 µM | > 100 µM | > 100 µM | > 100 µM | > 100 µM | – | – | – | – | – | – | – | – | – | – | > 100 |
| O=C(CSC(c1ccccc1)c1ccccc1)N/N=C/c1ccccc1Cl | > 100 µM | 78.6 µM | 65.3 µM | > 79.4 µM | 61.6 µM | 8.46 µM | > 100 µM | > 100 µM | – | > 100 µM | 25.5 µM | 14.5 µM | 17.9 µM | 12.8 µM | – | > 71.8 µM | 50.6 µM | – |
| CC(=O)O[C@@H]1C2=C(C)C3(CC3)[C@@](C)(O)C(=O)C2=C[C@@]1(C)CO | 7.03 µM | 2.79 µM | > 100 µM | > 100 µM | 2.66 µM | > 22.5 µM | 3.73 µM | 3.14 µM | – | 0.635 µM | 0.357 µM | 2.6 µM | 0.427 µM | 0.473 µM | 0.414 µM | 1.22 µM | 0.342 µM | – |
| Cc1ccc(C)c(NC(=O)C(=O)C2C(=O)N(c3ccccc3)N=C2N)c1 (centres undefined) | – | > 100 µM | > 100 µM | > 100 µM | > 100 µM | > 100 µM | – | – | > 100 | – | – | – | – | – | – | – | – | – |
| C[C@H]1COCCN1c1nc(-c2cnc(N)cc2C(F)F)nc(N2CCOCC2)n1 | 0.181 µM | > 100 µM | 0.815 µM | > 100 µM | > 100 µM | 97.8 µM | 19.8 µM | > 100 µM | – | 0.0269 µM | 0.265 µM | 0.0866 µM | 0.291 µM | 0.274 µM | 0.171 µM | 0.179 µM | 0.285 µM | – |
| Cn1c2c(c3ccccc3c1=O)C(=O)c1ccccc1-2 | > 100 µM | > 100 µM | > 100 µM | > 100 µM | > 100 µM | > 100 µM | > 100 µM | > 100 µM | – | – | – | – | – | – | – | – | – | – |
